Here are results for 1 molecule from patent US9676820B2, “Method for inhibiting proliferation of high LIX1L-expressing tumor cell, and tumor cell proliferation-inhibiting peptide” (National University Corporation Hamamatsu University School …, priority 2013, dated 2017).

What all share (assay type): cell-based
One assay concerns K562 strain. Nature of the assay: Viable cell counts (Trypan blue staining), K562 strain. The note with it: 5 μM peptide, vs untreated. As for the experimental part:
(§1) Specifically, cells plated such that the density thereof became 1×10^4 cells/3.5 cm well for one plate (6 wells/plate) for each cell strain were cultured for one night in a culture solution having the same composition as those of the culture solutions described in the reference examples. After culturing of 1 well out of the 6 wells was completed, Trypan blue staining was performed on the 1 well, and viable cell counts were counted. The remaining 5 wells were cultured after exchanging the culture solution with a liquid mixture of a Lipofectamine (registered trademark) reagent (12.5 μL/well) and a culture solution (2 mL/well) of which the shRNA concentration became 2.5 μg/well. Then, Trypan blue staining was performed on 1 well 24 hours after the exchange of a culture medium, 1 well 48 hours after the exchange of a culture medium, and the remaining 1 well 72 hours after the exchange of a culture medium, and the viable cell counts were counted. As a control, the viable cell counts were measured (untreated) by performing the culturing similarly to the above except that a culture medium was exchanged with a culture solution to which no shRNA was added.
Specifically, the viable cell counts were measured after culturing the cells similarly to Example 1 except that a 5 μM culture solution containing a control peptide, a peptide 1, or a peptide 2 was used instead of the culture solution (2 mL/well) of which the shRNA concentration was 2.5 μg/well. The viable cell counts were measured (untreated) by performing the culturing similarly to Example 1 using a culture solution containing no peptide 2, as a control.

The next assay deals with 293 FLG/LIX1L. Nature of the assay: MTT assay, 293 FLG/LIX1L cells. As for the experimental part:
(§2) Specifically, first, cells plated in a 96-well microplate such that the density thereof became 5×10^3 cells/well were cultured for one night in a culture solution having the same composition as those in the reference examples. […] After the culturing, an MTT-containing PBS solution was added to the culture solution, and the mixture was incubated for 4 hours. Then, formazan which was generated by putting 100 μL of isopropanol (containing 34 (v/v) % of hydrochloric acid) into each of the wells was dissolved. The absorbance of each of the wells of the microplate at 570 nm was measured using a microplate reader. As controls, culturing was performed in the same manner except that no peptide was added to the strains, an MTT assay was performed thereon, and the absorbance at 570 nm was measured (untreated).
(§3) In the method for measuring the viable cell counts, cells were cultured for 3 days similarly to Example 1 except that a 25 μM (10 μM for an HL-60 strain, a K562 strain, and a U937 strain) culture solution containing a control peptide or a peptide 1 was used, and the viable cell counts were measured. As a comparison, culturing was performed similarly to the above using a culture solution containing no peptide, and the viable cell counts were measured (untreated).
(§4) In addition, in the method for performing an MTT assay, cells were cultured for 72 hours similarly to Example 2 except that a peptide to be added to a strain was set to a control peptide or a peptide 1 at 25 μM (10 μM for an HL-60 strain, a K562 strain, and a U937 strain), an MTT assay was performed thereon, and the absorbance at 570 nm was measured. As a comparison, culturing was performed similarly to the above using a culture solution containing no peptide, and the MTT assay was performed thereon (untreated).
(§5) Specifically, the cells were cultured for 72 hours similarly to Example 2 except that a peptide to be added to a cell was set to a peptide 1, 2, 5, or 6, MTT assays were performed thereon, and the absorbance at 570 nm was measured. As a comparison, culturing was performed similarly to the above using a culture solution containing no peptide, and the MTT assay was performed thereon (untreated).
(§6) Specifically, the cells were cultured for 72 hours similarly to Example 2 except that peptides to be added to cell strains were set to peptides 7 to 14, MTT assays were performed thereon, and the absorbance at 570 nm was measured. […]
(§7) Specifically, the cells were cultured for 72 hours similarly to Example 2 except that a peptide to be added to a cell strain was set to a peptide 15 or 16, an MTT assay was performed thereon, and the absorbance at 570 nm was measured. […]

In the next assay the test system is OCUM-1 strain. Nature of the assay: MTT assay, OCUM-1 strain. The settings on record: MTT assay, 72 hours. As for the experimental part: Specifically, first, cells plated in a 96-well microplate such that the density thereof became 5×10^3 cells/well were cultured for one night in a culture solution having the same composition as those in the reference examples. Thereafter, the culture solution was exchanged with 100 μL of a culture solution of which the concentration of peptides is 0 μM to 100 μM for culturing for 72 hours. After the culturing, an MTT-containing PBS solution was added to the culture solution, and the mixture was incubated for 4 hours. Then, formazan which was generated by putting 100 μL of isopropanol (containing 34 (v/v) % of hydrochloric acid) into each of the wells was dissolved. The absorbance of each of the wells of the microplate at 570 nm was measured using a microplate reader. As controls, culturing was performed in the same manner except that no peptide was added to the strains, an MTT assay was performed thereon, and the absorbance at 570 nm was measured (untreated).

A further assay concerns 293 FLG. Nature of the assay: MTT assay, 293 FLG cells. As for the experimental part: as §2, §3, §4, §5, §6, §7
Another assay concerns RPMI8226 strain. Nature of the assay: Viable cell counts (Trypan blue staining), RPMI8226 strain. The note with it: 5 μM peptide, up to 72 hours, vs untreated. As for the experimental part: as §1, with “added. […]” for “added.”
The mark [1] stands for this setting: 72 hours, peptide concentrations up to 250 μM.
The mark [2] stands for this setting: peptide 25 μM, 3 days / 72 hours.

`CC(C)[C@H](NC(=O)[C@H](Cc1ccc(O)cc1)NC(=O)[C@H](CS)NC(=O)[C@@H](NC(=O)[C@H](Cc1ccc(O)cc1)NC(=O)[C@@H]1CCCN1C(=O)[C@@H]1CCCN1C(=O)[C@H](CO)NC(=O)[C@H](CC(N)=O)NC(=O)[C@H](CO)NC(=O)[C@@H]1CCCN1C(=O)CCCCCNC(=O)[C@H](CCCNC(=N)N)NC(=O)[C@H](CCCNC(=N)N)NC(=O)[C@H](CCCNC(=N)N)NC(=O)[C@H](CCC(N)=O)NC(=O)[C@H](CCCNC(=N)N)NC(=O)[C@H](CCCNC(=N)N)NC(=O)[C@H](CCCCN)NC(=O)[C@H](CCCCN)NC(=O)[C@H](CCCNC(=N)N)NC(=O)CNC(=O)[C@@H](N)Cc1ccc(O)cc1)C(C)C)C(N)=O` [peptide 1, YGRKKRRQRRR-X-PSNSPPYVCYV-NH2]: the viable cell counts entry in the assay on K562 strain (after 72 hours) was “very small”; with K562 strain (after culturing for 24 hours), “decreased”; with RPMI8226 strain it was “the same as those in the untreated case”. For the same molecule, the “cell proliferation (MTT assay, absorbance at 570 nm)” value in the assay on 293 FLG/LIX1L (setting [1]) and in the assay on 293 FLG (setting [1]) was “inhibited” each time. Further, the “cell proliferation (viable cell counts and MTT assay)” value is on record as “inhibited” in the assay on 293 FLG/LIX1L (setting [2]) and “not inhibited” in the assay on 293 FLG (setting [2]). Also, the “concentration at which a dominant effect of inhibiting the cell proliferation was recognized” value with OCUM-1 strain is listed as “greater than or equal to 6.25 μM”.
